Experimental data reported in US8785488B2 (Exelixis Patent Company LLC, priority 2009, dated 2014).

Assays:
h-TGR5 = target: T1, h-TGR5 (Homo sapiens, UniProt Q8TDU6); assay: TGR5 cAMP Assay using Cisbio cAMP Dynamic2 htrf kit (hTGR5CRE-luc HEK 293 cells); assay type: cell-based; conditions: h-TGR5 cAMP EC50, Table 1; read-out: cAMP (EC50)
T1 construct: expressed in transfected cells
T1 sequence (Q8TDU6 1-330): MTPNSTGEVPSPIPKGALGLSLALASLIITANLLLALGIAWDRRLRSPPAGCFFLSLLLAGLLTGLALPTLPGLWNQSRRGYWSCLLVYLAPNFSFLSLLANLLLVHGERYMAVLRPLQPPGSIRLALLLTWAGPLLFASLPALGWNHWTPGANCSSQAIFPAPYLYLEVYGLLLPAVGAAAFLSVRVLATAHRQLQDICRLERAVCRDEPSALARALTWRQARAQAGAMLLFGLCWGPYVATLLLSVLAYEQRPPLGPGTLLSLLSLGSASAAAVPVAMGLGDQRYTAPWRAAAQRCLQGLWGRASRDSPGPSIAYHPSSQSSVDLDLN
In short: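 […], 4000 hTGR5CRE-luc HEK 293 cells per well, with 0.5 mM IBMX and d2-cAMP, were incubated 30 min at room temperature with compounds in 8-point half-log series, in quadruplicate.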

human TGR5 (h-TGR5) = target: T2, human TGR5 (h-TGR5) (Homo sapiens, UniProt Q8TDU6); assay: TGR5/CRE-Luciferiase Assay (HEK 293 hTGR5/CRE-Luc cells); assay type: cell-based; conditions: h-TGR5 CRE-Luc EC50, Table 1; read-out: CRE-Luc (EC50)
T2 construct: expressed in transfected cells
T2 sequence (Q8TDU6 1-330): T1 sequence (Q8TDU6 1-330)
In short: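 HEK293 cells stably carrying hTGR5 and a CRE-luciferase reporter were exposed to serially diluted compounds (diluted in DMEM with 5% DMSO) for 6 h. Cells were then lysed in luciferase buffer, luminescence was read, and EC50 values were derived from dose-response curves.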

SMILES	EC50 (h-TGR5) [nM]	EC50 (human TGR5 (h-TGR5)) [nM]
CC(C)(c1ccc(Cl)c(Cl)c1)c1cnc(SCc2ccc(C(=O)O)cc2Cl)n1-c1ccc(F)cc1 [3-chloro-4-[({5-[1-(3,4-dichlorophenyl)-1-methylethyl]-1-(4-fluorophenyl)-1H-imidazol-2-yl}thio)methyl]benzoic acid]	100 to 1000	100 to 1000
CC(C)(c1ccc(Cl)c(Cl)c1)c1cnc(SCc2ccc(S(=O)(=O)NC(=O)NN3CCCC3)cc2Cl)n1-c1ccc(F)cn1 [3-chloro-4-[({5-[1-(3,4-dichlorophenyl)-1-methylethyl]-1-(5-fluoropyridin-2-yl)-1H-imidazol-2-yl}thio)methyl]-N-[(pyrrolidin-1-ylamino)carbonyl]benzenesulfonamide]	100 to 1000	100 to 1000
COc1cc(-n2c(C(C)(C)c3ccc(Cl)c(Cl)c3)cnc2SCc2c(F)cc(C(=O)O)cc2Cl)ccc1F [3-chloro-4-[({5-[1-(3,4-dichlorophenyl)-1-methylethyl]-1-[4-fluoro-3-(methyloxy)phenyl]-1H-imidazol-2-yl}thio)methyl]-5-fluorobenzoic acid]	< 100	< 100
COc1cc(-n2c(C(C)(C)c3ccc(Cl)c(Cl)c3)cnc2SCc2ccc(S(=O)(=O)NC(=O)NN3CCOCC3)cc2Cl)ccc1F [3-chloro-4-[({5-[1-(3,4-dichlorophenyl)-1-methylethyl]-1-[4-fluoro-3-(methyloxy)phenyl]-1H-imidazol-2-yl}thio)methyl]-N-[(morpholin-4-ylamino)carbonyl]benzenesulfonamide]	100 to 1000	100 to 1000
COc1cc(-n2c(C(C)(C)c3ccc(Cl)c(Cl)c3)cnc2SCc2ccc(S(=O)(=O)NC(=O)NN3CCCC3)cc2Cl)ccc1F [3-chloro-4-[({5-[1-(3,4-dichlorophenyl)-1-methylethyl]-1-[4-fluoro-3-(methyloxy)phenyl]-1H-imidazol-2-yl}thio)methyl]-N-[(pyrrolidin-1-ylamino)carbonyl]benzenesulfonamide]	1000 to 10000	100 to 1000
Cc1cc(-n2c(C(C)(C)c3ccc(F)c(F)c3)cnc2SCc2ccc(S(=O)(=O)NC(=O)NN3CCCC3)cc2Cl)ccc1F [3-chloro-4-[({5-[1-(3,4-difluorophcnyl)-1-methylethyl]-1-(4-fluoro-3-methylphenyl)-1H-imidazol-2-yl}thio)methyl]-N-[(pyrrolidin-1-ylamino)carbonyl]benzenesulfonamide]	1000 to 10000	100 to 1000
CC(C)(c1ccc(F)c(F)c1)c1cnc(SCc2ccc(S(=O)(=O)NC(=O)NN3CCCC3)cc2Cl)n1-c1ccc(F)cc1 [3-chloro-4-[({5-[1-(3,4-difluorophenyl)-1-methylethyl]-1-(4-fluorophenyl)-1H-imidazol-2-yl}thio)methyl]-N-[(pyrrolidin-1-ylamino)carbonyl]benzenesulfonamide]	1000 to 10000	100 to 1000
CC(C)NC(=O)NS(=O)(=O)c1ccc(CSc2ncc(C(C)(C)c3ccc(F)c(F)c3)n2-c2ccc(F)cc2)c(Cl)c1 [3-chloro-4-[({5-[1-(3,4-difluorophenyl)-1-methylethyl]-1-(4-fluorophenyl)-1H-imidazol-2-yl}thio)methyl]-N-{[(1-methylethyl)amino]carbonyl}benzenesulfonamide]	100 to 1000	100 to 1000
CC(C)(c1ccc(F)c(F)c1)c1cnc(SCc2ccc(S(N)(=O)=O)cc2Cl)n1-c1ccc(F)cc1 [3-chloro-4-[({5-[1-(3,4-difluorophenyl)-1-methylethyl]-1-(4-fluorophenyl)-1H-imidazol-2-yl}thio)methyl]benzenesulfonamide]	100 to 1000	100 to 1000
COc1cc(-n2c(C(C)(C)c3ccc(F)c(F)c3)cnc2SCc2ccc(S(=O)(=O)NC(=O)NN3CCCC3)cc2Cl)ccc1F [3-chloro-4-[({5-[1-(3,4-difluorophenyl)-1-methylethyl]-1-[4-fluoro-3-(methyloxy)phenyl]-1H-imidazol-2-yl}thio)methyl]-N-[(pyrrolidin-1-ylamino)carbonyl]benzenesulfonamide]	100 to 1000	100 to 1000
